We go through 16 molecules from PubChem BioAssay (NCI).

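All cell lines were grown in 96-well plates and treated with compound for 48 hours. GI50: concentration for 50% inhibition of growth. Definition used: TGI = concentration required for complete inhibition of growth.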

Some test systems named below: EKVX NSCLC; PC-3 prostate; SF-295 CNS; U251 CNS; SNB-19 CNS; UACC-62 melanoma; A549 NSCLC; M14 melanoma; RXF 393 renal.
Holding throughout (test): DTP human tumour cell line panel, 48 h

As for `COC(=O)C1=COC(C)C2C[n+]3ccc4c([nH]c5ccccc54)c3CC12` (stereo unspecified), the TGI with EKVX NSCLC, in the assay on PC-3 prostate, in the assay with SF-295 CNS, in the assay with U251 CNS, in the assay with SNB-19 CNS and with UACC-62 melanoma was above 100 µM in each case. The TGI in the assay with A549 NSCLC and with M14 melanoma was above 100 µM in each case.

Consider `Cc1ccc(S(=O)(=O)NC(=O)NC(Cc2ccccc2)C(=O)O)cc1` (stereo unspecified), for which the TGI in the assay on PC-3 prostate, in the assay with SF-295 CNS, in the assay with U251 CNS, in the assay with SNB-19 CNS, in the assay with UACC-62 melanoma and in the assay with A549 NSCLC was above 100 µM throughout. The TGI in the assay on M14 melanoma and in the assay on RXF 393 renal was above 100 µM in each case.

Consider `Cc1ccc(S(=O)(=O)N(CC(O)c2ccccc2)c2ccccc2F)cc1` (stereo unspecified), for which the TGI was above 100 µM in the assay with EKVX NSCLC; 32.2 µM in the assay with PC-3 prostate; 37.9 µM in the assay on SF-295 CNS; 36.7 µM in the assay on U251 CNS; 37.5 µM in the assay on SNB-19 CNS; 28 µM with UACC-62 melanoma. The TGI in the assay on A549 NSCLC came to 41.4 µM; with M14 melanoma, 31.9 µM.

For `Fc1ccc(C2NC(=S)NC3=C2CCOc2c3ccc3ccccc23)cc1` (stereo unspecified), the TGI with EKVX NSCLC, in the assay on PC-3 prostate, with SF-295 CNS, with SNB-19 CNS, in the assay on A549 NSCLC and in the assay on M14 melanoma was above 100 µM each time. The molecule further gave a TGI in the assay on RXF 393 renal above 100 µM.

Turning to `O=c1c(/C=C/c2c(O)ccc3ccccc23)nnc2sc(-c3cccc([N+](=O)[O-])c3)nn12`, the TGI is 79.4 µM in the assay with EKVX NSCLC; 46.5 µM in the assay on PC-3 prostate; 82.6 µM in the assay with SF-295 CNS; above 100 µM in the assay with U251 CNS; 43.9 µM in the assay with UACC-62 melanoma; 68.4 µM in the assay on M14 melanoma. Also, the TGI with RXF 393 renal was above 100 µM.

For the molecule `COc1cc(C(=O)O[C@H](C(=O)NCCNC(=O)[C@@H](OC(=O)c2cc(OC)cc3c(C)cccc23)[C@]2(C)CO2)[C@]2(C)CO2)c2cccc(C)c2c1`, the GI50 was 0.21 µM in the assay on EKVX NSCLC; 0.109 µM with PC-3 prostate; 0.173 µM in the assay with SF-295 CNS; 0.0225 µM in the assay on U251 CNS; 0.22 µM with SNB-19 CNS; below 0.0428 µM with A549 NSCLC. In addition, the GI50 in the assay on M14 melanoma is 0.178 µM. The TGI in the assay with EKVX NSCLC was 1.55 µM; in the assay with SF-295 CNS, 0.793 µM; in the assay on U251 CNS it was 0.306 µM; in the assay on A549 NSCLC, 1.25 µM; in the assay on M14 melanoma, 0.696 µM.

Regarding `COC(=O)c1c(C)ccc2c(O)c3c(cc12)C(=O)c1c2c(cc(O)c1C3=O)C1(C)OC(C)(O2)C(O)C(N(C)C)C1O` (stereo unspecified), the TGI turned out to be 8.75 µM in the assay on EKVX NSCLC; 4.89 µM in the assay on PC-3 prostate; 25.1 µM with SF-295 CNS; 1.6 µM with U251 CNS; 7.22 µM in the assay on SNB-19 CNS; 8.64 µM in the assay on UACC-62 melanoma. Further, in the assay with M14 melanoma, the TGI was found to be 10.4 µM.

In the case of `N#CC(c1nc2ccccc2s1)c1nc(Cl)ncc1Br` (stereo unspecified), the TGI in the assay with EKVX NSCLC, with SF-295 CNS, in the assay with U251 CNS, in the assay with SNB-19 CNS, in the assay on A549 NSCLC and in the assay with M14 melanoma was above 100 µM throughout. This molecule also yielded a total growth inhibition concentration (TGI) with RXF 393 renal of 90.3 µM.

For `CC(=O)c1cc2c(s1)C(=O)c1scc(C(C)=O)c1C2=O`, the TGI with EKVX NSCLC was 1.34 µM; in the assay on PC-3 prostate, 1.53 µM; in the assay with SF-295 CNS it was 2.15 µM; in the assay on U251 CNS, 0.628 µM; in the assay with SNB-19 CNS, 2.42 µM; in the assay on UACC-62 melanoma, 0.692 µM. Further, the TGI was found to be 2.71 µM with A549 NSCLC and 1.54 µM in the assay on RXF 393 renal.

On to `CCOC(O)C(F)(F)F` (stereo unspecified), for which the TGI with PC-3 prostate, in the assay with SF-295 CNS, in the assay with U251 CNS, in the assay on SNB-19 CNS, with A549 NSCLC and in the assay with M14 melanoma was above 100 µM in each case. The molecule further showed a TGI in the assay on RXF 393 renal above 100 µM.

Consider `N#CCN1CCCCCc2ccccc21`, for which the TGI with EKVX NSCLC, in the assay with SF-295 CNS, in the assay with U251 CNS, in the assay with SNB-19 CNS, in the assay on UACC-62 melanoma and with A549 NSCLC was above 100 µM each time. Moreover, the TGI in the assay on M14 melanoma and in the assay with RXF 393 renal was above 100 µM throughout.

With `OCCN1CN(c2nc(N3CN(CCO)C3)nc(N3CN(CCO)C3)n2)C1`, the TGI is 70.1 µM in the assay on EKVX NSCLC; 49.8 µM in the assay on PC-3 prostate; 53 µM in the assay with U251 CNS; 49.6 µM with SNB-19 CNS; 28.8 µM in the assay on UACC-62 melanoma; above 100 µM in the assay on A549 NSCLC. The TGI in the assay with M14 melanoma came to 34.3 µM; in the assay with RXF 393 renal it was 44.8 µM.

As for `CCOP(=O)(CC1CC(O)(CNc2cc(Cl)nc(N)n2)C1)OCC` (stereo unspecified), the TGI in the assay on EKVX NSCLC, with PC-3 prostate, with SF-295 CNS, with U251 CNS, in the assay with UACC-62 melanoma and with A549 NSCLC was above 100 µM in each case. In addition, the TGI in the assay with RXF 393 renal was above 100 µM.

Regarding `O=c1[nH]c(=S)c2cc3c(=S)[nH]c(=O)n(CCC(c4ccccc4)(c4ccccc4)c4ccccc4)c3nc2n1CCC(c1ccccc1)(c1ccccc1)c1ccccc1`, the TGI in the assay on EKVX NSCLC, in the assay on PC-3 prostate, with SF-295 CNS, in the assay on U251 CNS, in the assay on SNB-19 CNS and with UACC-62 melanoma was above 100 µM throughout. The TGI in the assay with A549 NSCLC and with M14 melanoma was above 100 µM throughout.

Turning to `CN1c2ccccc2C(=O)NC12CCN(Cc1ccccc1)CC2`, the TGI with EKVX NSCLC, in the assay with SF-295 CNS, with U251 CNS, with SNB-19 CNS, in the assay with UACC-62 melanoma and in the assay on A549 NSCLC was above 100 µM in each case. In addition, the TGI with M14 melanoma and in the assay on RXF 393 renal was above 100 µM in each case.

Turning to `COC(=O)C1=C(O)C(C(=O)OC)[C@]2(O)[C@H](C(=O)OC)[C@H]1C[C@@H](c1cccc(OC)c1)[C@H]2C(=O)OC` (stereo partly specified), the TGI in the assay with EKVX NSCLC was above 100 µM; in the assay with SF-295 CNS, above 100 µM; with U251 CNS, 68.7 µM; with SNB-19 CNS it was 81.7 µM; in the assay on UACC-62 melanoma, 35.1 µM; in the assay on A549 NSCLC, 75.3 µM. Moreover, the TGI in the assay with M14 melanoma is above 100 µM; with RXF 393 renal, 43.1 µM.
